Values after ≈ are worked out from the molar mass of the structure shown.
Experiment: Solubility Assay (saturation, shaker 24 hours, supernatant analysed by HPLC)
Conditions: for Solubility (mg/ml) in ethanol: solvent ethanol; for Solubility (mg/ml) in ethanol / Solubility (mg/ml) in water: 25 deg C./60% relative humidity, 24 hours; for Solubility (mg/ml) in water: solvent water; for solubility at 24 h: 25 °C, thermodynamic from solid
Procedure: 10 mg of the test compound was weighed into a vial, and 1 ml of solvent was added. If the sample dissolved immediately, as evidenced by a formation of a clear solution, more of the test material was added and the vial sonicated for 15 mins. This procedure was repeated until no more test compound could be dissolved, as evidenced by formation of a suspension. The vial containing the suspension was then was sonicated for 15 mins, and placed on a shaker at 25 deg C./60% relative humidity for 24 hours. On removal from the shaker, the sample was centrifuged and the supernatant analysed by HPLC.

Compound	Solubility (mg/ml) in ethanol	Solubility (mg/ml) in water	solubility at 24 h (ethanol, organic solvent or mixture)	solubility at 24 h (water)	aqueous solubility (in words) (water, qualitative statement)
[Mg] [Magnesium]	<5 mg/mL	<5 mg/mL	–	–	–
O=C(NCC(F)F)c1ccc(-n2[nH]c3c(nnc4c(F)cccc43)c2=O)cc1 [None (free acid), 4-(6-fluoro-3-oxo-1,3-dihydro-pyrazolo[4,3-c]cinnolin-2-yl)-N-(2,2-difluoro-ethyl)-benzamide]	–	–	2100 µg/mL (≈ 5.42 mM)	< 500 µg/mL	poorly soluble in water
[K+] [Potassium]	<5 mg/mL	<5 mg/mL	–	–	–
Sodium	7.1 mg/mL	<5 mg/mL	–	–	–
